Here are results for three compounds from US9777015B2, “Useful thiophene derivatives in the treatment of diabetes” (METABRAIN RESEARCH, priority 2012, dated 2017).

The test system of experiment [1] is hepatocytes isolated from Wistar rat liver. Put plainly: Test of inhibition of hepatic production of glucose (isolated hepatocytes, 3 h or 20 h incubation). The class given is cell-based. Particulars: Rattus norvegicus, Hepatocyte, hepatic glucose production, rat hepatocytes; for activity at 50 µM: compound at 50 μM, read-out: HGP % of ctrl @ 50 μM; for activity at 100 µM: compound at 100 μM, read-out: HGP % of ctrl @ 100 μM. In a few lines:
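Hepatocytes from 24 h-fasted Wistar rats were cultured overnight in glucose-free RPMI with hydrocortisone (7.10^−5M). Glucose production was run for 3 h in Krebs with lactate/pyruvate plus compounds (0.1% DMSO final), or after an added 20 h pretreatment during the RPMI culture. Supernatant glucose was measured by glucose oxidase and expressed per mg protein (Lowry).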

Experiment [2] has as its system isolated perfused pancreases of N0STZ diabetic rats. Put plainly: Insulin secretion in response to glucose at isolated perfused pancreases of N0STZ diabetic rats. Further details: species or system rat. Particulars: for restoring insulin secretion in response to glucose: isolated perfused pancreases of N0STZ diabetic rats. The procedure:
The pancreas was taken on rats made to be diabetic by injection of Streptozotocin on the day of birth and anesthetized with Pentobarbital (Nembutal©: 45 mg/kg; intraperitoneal route). These rats have a specific deficiency of the insulin response to glucose, as observed in humans with diabetes of type II. The isolation and the perfusion of the pancreas were achieved according to a modification of the procedure described by Sussman et al.. The effect of the compounds or reference substances is tested for 35 minutes (from t=20 min to t=55 min) in Krebs buffer in the absence (GO) or in the presence of glucose at 2.8 mM (G2.8 mM), and then 20 minutes (from t=55 min to t=75 min) in the presence of glucose 16.5 mM. The concentration of insulin secreted into the medium is measured by an Elisa assay (ELISA Alpco Cat no. 80-INSRTH-E10). The results are expressed as an average+/−SEM (Standard Error of the Mean) of several experiments.

The subject of the next experiment is INS-1 cells. Put plainly: Stimulation test of insulin secretion by INS-1 cells. The format is cell-based. Particulars: Rattus norvegicus, 1 h incubation, 3.5 mM glucose; for activity at 10 µM: INS1, compound at 10 μM, read-out: INS-1 % of ctrl @ 10 μM; for activity at 50 µM: INS1, compound at 50 μM, read-out: INS-1 % of ctrl @ 50 μM. The procedure: The different compounds were tested on an INS-1 beta-pancreatic line in order to evaluate their capability of potentializing the insulin secretion in response to glucose. Very briefly, the cells are cultivated in a culture medium, RPMI 1640 with 10 mM glucose containing 1 mM of sodium pyruvate, 50 μM of 2-mercaptoethanol, 2 mM of glutamine, 10 mM of HEPES, 100 IU/mL of penicillin, 100 μg/mL of streptomycin and 10% of inactivated fetal calf serum, as described by Asfari et al.. For the insulin secretion test, the INS-1 cells are sown and cultivated in 96-well plates. After 3 days of cultivation at 37° C. in a humid atmosphere (95% air/5% CO2), the medium is removed and the cells are incubated for 16 h in a medium containing 5 mM of glucose and 1% of inactivated fetal calf serum. On the day of the test, the cells are washed with a Krebs buffer (pH 7.4) containing 0.1% of bovine albumin and then pre-incubated for 30 min at 37° C. in this same buffer containing 2.8 mM of glucose. Finally, the cells are again washed with Krebs buffer and then incubated for 1 h in the buffer of the secretion test (Krebs, pH 7.4 containing 0.1% of bovine albumin and 3.5 mM of glucose and molecules to be evaluated). At the end of the test, the cell supernatant is recovered in order to measure therein the secreted insulin, by means of an ELISA kit using a rat anti-insulin antibody (ELISA Alpco Cat no. 80-INSRTH-E10). Each condition is tested in triplicate. The 3.5 mM glucose, the 10^−7M GLP-1 and the Forskoline 10^−7/IBMX 10^−5M mixtures are used as positive controls of the test. A compound stimulates the secretion of insulin if this factor is greater than or equal to 130% of the control for a given glucose dose.

For a further experiment, the system named is GK (Goto-Kakisaki) rats. As to the kind of experiment: Antidiabetic activity in GK (Goto-Kakisaki) rats, intravenous glucose tolerance test (IVGTT). The class given is in vivo, rat. As to conditions: single oral dose 20 mg/kg. The procedure:
The antidiabetic activity of compound 10 was evaluated in GK rats, a non-obese model of diabetes of type II. This model was obtained by cross-breeding of Wistar rats selected on the basis of a slight intolerance to glucose. These rats have the majority of dysfunctions observed in diabetes of type II in humans: hyperglycemia, intolerance to glucose, insulin-resistance, and deteriorated insulin response to glucose. These animals were bred at Metabrain and were housed in an animal housing facility with a regulated temperature (22±2° C.) under constant humidity (50±20%) with a day/night cycle of 12 h (light from 7 h-19 h) and have access ad libitum to food and drink. The housing and experimentation conditions comply with the European directives relating to health and ethical treatment of laboratory animals (ETS123). In this study, the rats used are female 16-week old GK rats having fasted for 2 hours before beginning the study (postabsorptive condition). A glucose tolerance test is carried out via an intravenous route (IVGTT) on 2 groups of rats: One group treated with the compound 10 orally at the single dose of 20 mg/kg and a control group treated orally with the carrier. The tolerance test is carried out 1 h after oral administration of compound 10 on the animals anesthetized beforehand with pentobarbital (45 mg/kg via an intraperitoneal route). A blood sample was taken at TO just before administration of the glucose load (0.5 g/kg via an intravenous route) and at x T5, T10, T15, T20 and T30 min after the glucose load. The blood samples are centrifuged in order to collect the plasma for determining glycemia. The results shown above are expressed • as a percentage of the decrease of glycemia at TO for the group treated with the compound 10, compared with the control group. • as a percentage of the decrease of AUC (area under the curve of glycemia versus time) for the group treated with the compound 10 as compared with the control group.

Molecules are shown by their SMILES. Read-outs that look alike come from different tables or passages of the source.

Turning to `CCOC(=O)Cc1cc(C(=O)c2ccco2)sc1-c1ccc(Cl)cc1` [compound 10, ethyl 2-(2-(4-chlorophenyl)-5-(furan-2-carbonyl)thiophen-3-yl)acetate], in experiment [1] (3 h, 3 h incubation), the activity at 50 µM turned out to be 64% and the activity at 100 µM amounted to 39%. In experiment [2], the “restoring insulin secretion in response to glucose” value is listed as “strongest secretions”. For the same compound, in the experiment on INS-1 cells, the activity at 10 µM was 144% and the activity at 50 µM came out at 210%. The intolerance to glucose result in the experiment with GK (Goto-Kakisaki) rats (GK rats, IVGTT 1 h after administration) is “capable of reducing”. Moreover, the basal hyperglycemia entry in the experiment on GK (Goto-Kakisaki) rats (GK rats, glycemia at T0) is on record as “capable of reducing”. For the same compound, in the experiment on GK (Goto-Kakisaki) rats (female GK rats, IVGTT, vs control group treated with carrier), the “AUC, % of activity” value is listed as −35%. Further, in the experiment on GK (Goto-Kakisaki) rats (female GK rats, vs control group treated with carrier), the “Glycemia at T0, % of activity” value is on record as −11%.

As to `CCOC(=O)C(COC)c1cc(C(=O)c2ccc(OC)cc2)sc1-c1ccc(Cl)cc1` (stereo not drawn) [compound 124, ethyl 2-(2-(4-chlorophenyl)-5-(4-methoxybenzoyl)thiophen-3-yl)-3-methoxypropanoate], in experiment [1] (20 h, 20 h incubation), the activity at 50 µM stood at 92% and the activity at 100 µM is 60%. Further, the “restoring insulin secretion in response to glucose” value in experiment [2] is “strongest secretions”. Also, in the experiment on INS-1 cells, the activity at 10 µM was found to be 177% and the activity at 50 µM is 169%.

Turning to `CCOC(=O)Cc1cc(C(=O)c2ccc(OC)cc2)sc1-c1ccc(Cl)c(Cl)c1` [compound 157, ethyl 2-[2-(3,4-dichlorophenyl)-5-(4-methoxybenzoyl)-3-thienyl]acetate], the activity at 50 µM in experiment [1] (3 h, 3 h incubation) turned out to be 97%; in the experiment with INS-1 cells, 140%. In experiment [1] (3 h, 3 h incubation), the activity at 100 µM was determined as 74%. Besides, the “Insulin secretion peak at G16.5 mM, Tested product” value in experiment [2] (tested concentration 10 μM, glucose 16.5 mM, average +/- SEM) is recorded as 989 ± 86 μU/min.
